# Laboratory results: the supplement of paper PMC10307832
# Key:
# Assay in all cases: relative viability (nuclei count vs DMSO), 5 days (fraction); higher = more cells survive
# [1] = tested on: A-427
# How it was run: (§1)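 Cells from lung cancer lines were seeded into 1536-well plates and, one day later, dosed by pin tool. Treatments were either a single drug or a fixed dose of an anchor drug with five library-drug doses (not always all listed) in √10 steps. After 5 days, nuclei were stained in a one-step fixation (final 0.05% Triton X-100, 1% formaldehyde, 1 ug/ml Hoechst) and counted on 4× images, and relative viability is the treated-to-vehicle nuclei ratio, as the median of duplicate plates.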
# [2] = tested on: ABC-1
# How it was run: as §1
# [3] = tested on: BEN
# How it was run: as §1
# [4] = tested on: CAL-12T
# How it was run: as §1
# [5] = tested on: HARA
# How it was run: as §1
# [6] = tested on: LCLC-103H
# How it was run: as §1
# [7] = tested on: LOU-NH91
# How it was run: as §1
# [8] = tested on: NCI-H1651
# How it was run: as §1
# [9] = tested on: NCI-H1666
# How it was run: as §1
# [10] = tested on: NCI-H1734
# How it was run: as §1
# [11] = tested on: NCI-H1944
# How it was run: as §1
# [12] = tested on: NCI-H1975
# How it was run: as §1
# [13] = tested on: NCI-H2085
# How it was run: as §1
# [14] = tested on: NCI-H2126
# How it was run: as §1
# [15] = tested on: NCI-H460
# How it was run: as §1
# [16] = tested on: NCI-H520
# How it was run: as §1
# [17] = tested on: NCI-H596
# How it was run: as §1
# [18] = tested on: NCI-H647
# How it was run: as §1
# [19] = tested on: NCI-H661
# How it was run: as §1
# [20] = tested on: NCI-H727
# How it was run: as §1
# [21] = tested on: NCI-H838
# How it was run: as §1
# [22] = tested on: RERF-LC-KJ
# How it was run: as §1
# [23] = tested on: SW 900
# How it was run: as §1
structure (smiles),measurement,setting,value
Cc1cn(-c2cc(NC(=O)c3ccc(C)c(Nc4nccc(-c5cccnc5)n4)c3)cc(C(F)(F)F)c2)cn1 [Nilotinib] + Cc1cc(Nc2cc(N3CCN(C)CC3)nc(Sc3ccc(NC(=O)C4CC4)cc3)n2)n[nH]1 [Tozasertib] (partner 0.1 µM),relative viability,[1]; first compound 0.001 µM,0.168
same,relative viability,[1]; first compound 0.003162 µM,0.184
same,relative viability,[1]; first compound 0.01 µM,0.149
same,relative viability,[1]; first compound 0.03162 µM,0.167
same,relative viability,[1]; first compound 0.1 µM,0.168
same,relative viability,[2]; first compound 0.001 µM,0.175
same,relative viability,[2]; first compound 0.003162 µM,0.176
same,relative viability,[2]; first compound 0.01 µM,0.168
same,relative viability,[2]; first compound 0.03162 µM,0.232
same,relative viability,[2]; first compound 0.1 µM,0.237
same,relative viability,[3]; first compound 0.001 µM,0.498
same,relative viability,[3]; first compound 0.003162 µM,0.494
same,relative viability,[3]; first compound 0.01 µM,0.456
same,relative viability,[3]; first compound 0.03162 µM,0.408
same,relative viability,[3]; first compound 0.1 µM,0.509
same,relative viability,[4]; first compound 0.001 µM,0.197
same,relative viability,[4]; first compound 0.003162 µM,0.217
same,relative viability,[4]; first compound 0.01 µM,0.219
same,relative viability,[4]; first compound 0.03162 µM,0.172
same,relative viability,[4]; first compound 0.1 µM,0.211
same,relative viability,[5]; first compound 0.001 µM,0.0752
same,relative viability,[5]; first compound 0.003162 µM,0.102
same,relative viability,[5]; first compound 0.01 µM,0.102
same,relative viability,[5]; first compound 0.03162 µM,0.0999
same,relative viability,[5]; first compound 0.1 µM,0.0992
same,relative viability,[6]; first compound 0.001 µM,0.347
same,relative viability,[6]; first compound 0.003162 µM,0.425
same,relative viability,[6]; first compound 0.01 µM,0.452
same,relative viability,[6]; first compound 0.03162 µM,0.364
same,relative viability,[6]; first compound 0.1 µM,0.293
same,relative viability,[7]; first compound 0.001 µM,0.696
same,relative viability,[7]; first compound 0.003162 µM,0.708
same,relative viability,[7]; first compound 0.01 µM,0.781
same,relative viability,[7]; first compound 0.03162 µM,0.62
same,relative viability,[7]; first compound 0.1 µM,0.726
same,relative viability,[8]; first compound 0.001 µM,0.458
same,relative viability,[8]; first compound 0.003162 µM,0.584
same,relative viability,[8]; first compound 0.01 µM,0.405
same,relative viability,[8]; first compound 0.03162 µM,0.249
same,relative viability,[8]; first compound 0.1 µM,0.275
same,relative viability,[9]; first compound 0.001 µM,0.493
same,relative viability,[9]; first compound 0.003162 µM,0.566
same,relative viability,[9]; first compound 0.01 µM,0.531
same,relative viability,[9]; first compound 0.03162 µM,0.518
same,relative viability,[9]; first compound 0.1 µM,0.556
same,relative viability,[10]; first compound 0.001 µM,0.251
same,relative viability,[10]; first compound 0.003162 µM,0.273
same,relative viability,[10]; first compound 0.01 µM,0.324
same,relative viability,[10]; first compound 0.03162 µM,0.231
same,relative viability,[10]; first compound 0.1 µM,0.214
same,relative viability,[11]; first compound 0.001 µM,0.248
same,relative viability,[11]; first compound 0.003162 µM,0.3
same,relative viability,[11]; first compound 0.01 µM,0.248
same,relative viability,[11]; first compound 0.03162 µM,0.197
same,relative viability,[12]; first compound 0.001 µM,0.212
same,relative viability,[12]; first compound 0.003162 µM,0.224
same,relative viability,[12]; first compound 0.01 µM,0.205
same,relative viability,[12]; first compound 0.03162 µM,0.154
same,relative viability,[12]; first compound 0.1 µM,0.218
same,relative viability,[13]; first compound 0.001 µM,0.616
same,relative viability,[13]; first compound 0.003162 µM,0.593
same,relative viability,[13]; first compound 0.01 µM,0.585
same,relative viability,[13]; first compound 0.03162 µM,0.47
same,relative viability,[13]; first compound 0.1 µM,0.427
same,relative viability,[14]; first compound 0.001 µM,0.786
same,relative viability,[14]; first compound 0.003162 µM,0.857
same,relative viability,[14]; first compound 0.01 µM,0.963
same,relative viability,[14]; first compound 0.03162 µM,0.599
same,relative viability,[14]; first compound 0.1 µM,0.438
same,relative viability,[15]; first compound 0.001 µM,0.152
same,relative viability,[15]; first compound 0.03162 µM,0.1
same,relative viability,[15]; first compound 0.1 µM,0.0459
same,relative viability,[16]; first compound 0.001 µM,0.486
same,relative viability,[16]; first compound 0.003162 µM,0.46
same,relative viability,[16]; first compound 0.01 µM,0.428
same,relative viability,[16]; first compound 0.03162 µM,0.462
same,relative viability,[16]; first compound 0.1 µM,0.386
same,relative viability,[17]; first compound 0.001 µM,0.799
same,relative viability,[17]; first compound 0.003162 µM,0.972
same,relative viability,[17]; first compound 0.01 µM,1.01
same,relative viability,[17]; first compound 0.03162 µM,0.619
same,relative viability,[17]; first compound 0.1 µM,0.68
same,relative viability,[18]; first compound 0.001 µM,0.147
same,relative viability,[18]; first compound 0.003162 µM,0.227
same,relative viability,[18]; first compound 0.01 µM,0.164
same,relative viability,[18]; first compound 0.03162 µM,0.143
same,relative viability,[18]; first compound 0.1 µM,0.139
same,relative viability,[19]; first compound 0.001 µM,0.346
same,relative viability,[19]; first compound 0.003162 µM,0.357
same,relative viability,[19]; first compound 0.01 µM,0.364
same,relative viability,[19]; first compound 0.03162 µM,0.382
same,relative viability,[19]; first compound 0.1 µM,0.355
same,relative viability,[20]; first compound 0.001 µM,0.599
same,relative viability,[20]; first compound 0.003162 µM,0.624
same,relative viability,[20]; first compound 0.01 µM,0.503
same,relative viability,[20]; first compound 0.03162 µM,0.437
same,relative viability,[20]; first compound 0.1 µM,0.599
same,relative viability,[21]; first compound 0.001 µM,0.219
same,relative viability,[21]; first compound 0.003162 µM,0.298
same,relative viability,[21]; first compound 0.01 µM,0.294
same,relative viability,[21]; first compound 0.03162 µM,0.228
same,relative viability,[21]; first compound 0.1 µM,0.221
same,relative viability,[22]; first compound 0.001 µM,0.335
same,relative viability,[22]; first compound 0.003162 µM,0.416
same,relative viability,[22]; first compound 0.01 µM,0.305
same,relative viability,[22]; first compound 0.03162 µM,0.349
same,relative viability,[22]; first compound 0.1 µM,0.302
same,relative viability,[23]; first compound 0.001 µM,0.324
same,relative viability,[23]; first compound 0.003162 µM,0.51
same,relative viability,[23]; first compound 0.01 µM,0.389
same,relative viability,[23]; first compound 0.03162 µM,0.34
same,relative viability,[23]; first compound 0.1 µM,0.262
